One data set deals with PRMT1 (Homo sapiens, UniProt Q99873). Nature of the data set: radioactive PRMT1 methylation inhibition assay ([3H]-SAM, biotinylated histone H4 peptide). The following applies: for inhibition at 10 µM / % Inhibition of PRMT1 (at 10 μM): 10 μM compound, initial screening. The format is biochemical. As to the method: A series of 1,5-substituded tetrazole derivatives were synthesized to investigate the structure-activity relationship (SAR) of PRMT1 inhibitors (Table 1). […] The chemical modification of these compounds is mainly focused on the substituted benzene ring. The initial screening of these compounds was carried out using the radioactive PRMT1 methylation inhibition assay, which measured the amount of methyl groups that transferred from [^3H]-SAM to a biotinylated histone H4 peptide (ac- […](Biotin)). […] In the second step, the Group II compounds were designed and synthesized by extending the ethylenediamine side chain to propylenediamine.
(§1) The enzyme inhibitory activities were measured by the radioisotope assay in ShangHai Chempartner Co. Ltd. according to the standard protocol. The similar procedure was recently performed in the publication The radioactive methylation assay was performed in 1× assay buffer (modified Tris buffer) system containing enzyme (PRMT1/5), peptide and [^3H]-SAM solution and compounds on the assay plate. […] Afterwards, the reaction was stopped with addition of 5 μL cold SAM solution to per well. Then, 25 μL of volume per well was transferred to Flashplate from assay plate and incubated for 1 h minimum at room temperature. Finally, the Flashplate was washed with dH2O and 0.1% Tween-20 three times and then reading plate in Mi crobeta using program ^3H-Flashplate. The data was analyzed in GraphPad Prism 5 to obtain IC50 values.

In the next data set the target is PRMT5 (Homo sapiens, UniProt O14744). Kind of data set: radioactive methylation assay, PRMT5 selectivity. In kind it is biochemical. As to the method: as §1

One may read the inhibition as the change of the read-out against control, counted positive when it falls. By melting point is commonly meant the temperature of the solid-liquid transition. Broadly, the IC50 is the concentration needed to halve the response being measured.

Where a name gives a salt, the structure may show the parent alone.

Chain of PRMT5 (O14744 whole entry, species assumed): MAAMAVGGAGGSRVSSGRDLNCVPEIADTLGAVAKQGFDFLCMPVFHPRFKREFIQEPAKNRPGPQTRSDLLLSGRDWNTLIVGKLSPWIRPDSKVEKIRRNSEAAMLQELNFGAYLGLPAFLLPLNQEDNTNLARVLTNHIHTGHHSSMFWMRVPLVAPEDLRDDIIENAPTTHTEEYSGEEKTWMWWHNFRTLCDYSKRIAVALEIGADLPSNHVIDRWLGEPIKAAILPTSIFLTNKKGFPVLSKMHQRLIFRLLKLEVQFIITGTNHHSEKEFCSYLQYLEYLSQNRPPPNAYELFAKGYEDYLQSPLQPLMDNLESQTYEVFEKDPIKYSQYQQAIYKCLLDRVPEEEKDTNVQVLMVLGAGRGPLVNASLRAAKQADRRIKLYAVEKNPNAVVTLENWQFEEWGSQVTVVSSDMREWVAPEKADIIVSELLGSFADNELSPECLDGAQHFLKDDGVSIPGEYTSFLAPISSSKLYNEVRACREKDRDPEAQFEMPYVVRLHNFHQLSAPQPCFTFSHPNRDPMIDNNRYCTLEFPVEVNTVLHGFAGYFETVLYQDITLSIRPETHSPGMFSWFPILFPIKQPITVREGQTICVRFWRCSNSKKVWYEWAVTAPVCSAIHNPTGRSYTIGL
Chain of PRMT5 (Q9BQA1 whole entry partner, species assumed): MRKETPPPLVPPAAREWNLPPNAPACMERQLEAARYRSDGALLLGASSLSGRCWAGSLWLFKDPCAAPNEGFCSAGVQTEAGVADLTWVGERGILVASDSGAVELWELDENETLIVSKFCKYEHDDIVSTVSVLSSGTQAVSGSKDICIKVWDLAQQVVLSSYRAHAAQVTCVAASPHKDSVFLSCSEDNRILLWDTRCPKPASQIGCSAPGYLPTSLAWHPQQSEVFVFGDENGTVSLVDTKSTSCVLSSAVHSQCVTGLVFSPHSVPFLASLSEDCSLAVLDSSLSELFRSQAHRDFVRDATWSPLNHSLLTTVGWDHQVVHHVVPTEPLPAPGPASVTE
Chain of PRMT1 (Q99873 whole entry): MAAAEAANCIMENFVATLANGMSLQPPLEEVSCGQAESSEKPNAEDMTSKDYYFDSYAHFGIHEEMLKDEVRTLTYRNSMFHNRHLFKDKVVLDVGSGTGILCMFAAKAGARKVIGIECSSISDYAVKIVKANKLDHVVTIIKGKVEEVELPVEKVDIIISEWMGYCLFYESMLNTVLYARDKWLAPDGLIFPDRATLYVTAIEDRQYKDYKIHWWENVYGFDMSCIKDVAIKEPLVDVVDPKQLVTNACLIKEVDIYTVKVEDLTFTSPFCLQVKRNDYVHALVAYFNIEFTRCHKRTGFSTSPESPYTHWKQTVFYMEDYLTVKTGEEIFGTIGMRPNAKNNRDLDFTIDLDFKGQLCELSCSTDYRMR

Turning to `CNCCCN(C)Cc1nnnn1-c1ccc(OC)cc1.Cl` [10c, N,N’-Dimethyl-N’-(1-(4-methoxyphenyl)-1H-tetrazol-5-yl-methyl)-1,3-propylenediamine hydrochloride], the melting point lay within 188.2 to 190.1 °C. Moreover, the inhibition at 10 µM on PRMT1 is -6%.

Take “N,N’-Dimethyl-N’-(1-(4-methylsulfonylphenyl)-1H-tetrazol-5-yl-methyl)ethylenediamine hydrochloride [16a]”: on PRMT1, the “% Inhibition of PRMT1 (at 10 μM)” value came to 23%. Turning to `CC(C)Oc1ccc(-n2nnnc2CNCCN)cc1` (as salt: hydrochloride) [18d, N-(1-(4-Isopropoxyphenyl)-1H-tetrazol-5-yl-methyl)-ethylenediaminehydrochloride], the melting point is 183.1 to 183.9 °C. For `CNCCN(C)Cc1nnnn1-c1cccc(OC(C)C)c1` [9b, N,N’-Dimethyl-N’-(1-(3-isopropoxyphenyl)-1H-tetrazol-5-yl-methyl)ethylenediamine hydrochloride], the inhibition at 10 µM at PRMT1 is 0%. Take `CNCCN(C)Cc1nnnn1-c1cccc(OCC(F)(F)F)c1` [16d, N,N’-Dimethyl-N’-(1-(3-(2,2,2-trifluoroethoxy)phenyl)-1H-tetrazol-5-ylmethyl)ethylenediamine hydrochloride]: the inhibition at 10 µM at PRMT1 was determined as 3%. `CC(C)Oc1ccc(-n2nnnc2CN2CCN(CCN)CC2)cc1` (as salt: hydrochloride) [18e, N-aminoethyl-N’-(1-(4-isopropoxyphenyl)-1H-tetrazol-5-yl-methyl)-piperazinehydrochloride] registered a melting point of 183.2 to 183.9 °C. `CNCCN(C)Cc1nnnn1-c1cccc(OC)c1.Cl` [9d, N,N’-Dimethyl-N’-(1-(3-methoxyphenyl)-1H-tetrazol-5-yl-methyl)ethylenediamine hydrochloride] came in with a melting point of 185.6 to 186.4 °C. The inhibition at 10 µM at PRMT1 worked out at 7%. With “N,N’-Dimethyl-N’-(1-(3-methylsulfonylphenyl)-1H-tetrazol-5-yl-methyl)-1,3-propylenediamine hydrochloride [16e]”, the “% Inhibition of PRMT1 (at 10 μM)” value on PRMT1 is −4%. In the case of “N-Guanidino-N’-(1-(4-isopropoxyphenyl)-1H-tetrazol-5-yl-methyl)-N’-methyl-ethylenediamine hydrochloride [compound 20]”, the “% Inhibition of PRMT1 (at 10 μM)” value at PRMT1 was −7%. `CC(C)Oc1ccc(-n2nnnc2CN(C)CCN)cc1.Cl` [18a, N-(1-(4-Isopropoxyphenyl)-1H-tetrazol-5-yl-methyl)-N-methyl-ethylenediamine hydrochloride] registered a melting point of 186.5 to 187.7 °C. Moreover, on PRMT1, the IC50 came to 10 µM and the inhibition at 10 µM came to 50%. Moreover, the IC50 at PRMT5 is > 100 µM. For `CNCCCN(C)Cc1nnnn1-c1cccc(OC(C)C)c1` [10b, N,N’-Dimethyl-N’-(1-(3-isopropoxyphenyl)-1H-tetrazol-5-yl-methyl)-1,3-propylenediamine hydrochloride], at PRMT1, the inhibition at 10 µM came out at 0%. The compound `CNCCNCc1nnnn1-c1ccc(OC(C)C)cc1.Cl` [18c, N-Methyl-N’-(1-(4-isopropoxyphenyl)-1H-tetrazol-5-yl-methyl)-ethylenediamine hydrochloride] gave a melting point of 179.7 to 180.7 °C. Also, the inhibition at 10 µM on PRMT1 amounted to 10%. Regarding `CC(C)Oc1ccc(-n2nnnc2CN2CCN(CCN)CC2)cc1` [18e, N-aminoethyl-N’-(1-(4-isopropoxyphenyl)-1H-tetrazol-5-yl-methyl)-piperazinehydrochloride], the concentration for half-maximal inhibition (IC50) on PRMT5 is > 100 µM. On to `CNCCN(C)Cc1nnnn1-c1cccc(OC(F)(F)F)c1.Cl` [9e, N,N’-Dimethyl-N’-(1-(3-trifluoromethoxyphenyl)-1H-tetrazol-5-yl-methyl)ethylenediamine hydrochloride], for which the melting point is 185.6 to 186.4 °C. At PRMT1, the inhibition at 10 µM was -17%. Compound `CNCCN(C)Cc1nnnn1-c1ccc(OCC(F)(F)F)cc1.Cl` [16c, N,N’-Dimethyl-N’-(1-(4-(2,2,2-trifluoroethoxy)phenyl)-1H-tetrazol-5-yl-methyl)ethylenediamine hydrochloride] yielded a melting point of 188.7 to 190 °C. Moreover, at PRMT5, the IC50 was > 100 µM. Regarding “N,N’-Dimethyl-N’-(1-(3-methylsulfonylphenyl)-1H-tetrazol-5-yl-methyl)ethylenediamine hydrochloride [16b]”, on PRMT1, the “% Inhibition of PRMT1 (at 10 μM)” value was 13%. Consider `CC(C)Oc1ccc(-n2nnnc2CN(C)CCCN)cc1` [18b, N-(1-(4-Isopropoxyphenyl)-1H-tetrazol-5-yl-methyl)-N-methyl-1,3-propylenediamine hydrochloride], for which the inhibition at 10 µM on PRMT1 is 15%. Take `CNCCCN(C)Cc1nnnn1-c1cccc(OC)c1` [10d, N,N’-Dimethyl-N’-(1-(3-methoxyphenyl)-1H-tetrazol-5-yl-methyl)-1,3-propylenediamine hydrochloride]: the inhibition at 10 µM at PRMT1 is -14%. For `CNCCCN(C)Cc1nnnn1-c1cccc(OC(F)(F)F)c1` [10e, N,N’-Dimethyl-N’-(1-(3-trifluoromethoxyphenyl)-1H-tetrazol-5-yl-methyl)-1,3-propylenediamine hydrochloride], the inhibition at 10 µM on PRMT1 was -12%.

`CC(C)Oc1ccc(-n2nnnc2CNCCN)cc1` [18d, N-(1-(4-Isopropoxyphenyl)-1H-tetrazol-5-yl-methyl)-ethylenediaminehydrochloride]: the inhibition at 10 µM on PRMT1 was 18%. With `CNCCN(C)Cc1nnnn1-c1ccc(OC(F)(F)F)cc1.Cl` [9f, N,N’-Dimethyl-N’-(1-(4-trifluoromethoxyphenyl)-1H-tetrazol-5-yl-methyl)ethylenediamine hydrochloride], the melting point was in the range of 194.3 to 195.2 °C. Besides, the IC50 at PRMT5 was > 100 µM. As to `CNCCN(C)Cc1nnnn1-c1ccc(OC)cc1.Cl` [9c, N,N’-Dimethyl-N’-(1-(4-methoxyphenyl)-1H-tetrazol-5-yl-methyl)ethylenediamine hydrochloride], the melting point is 163.2 to 163.6 °C. Further, at PRMT1, the inhibition at 10 µM amounted to 3%. As to `CNCCCN(C)Cc1nnnn1-c1ccc(OC(C)C)cc1` [10a, N,N’-Dimethyl-N’-(1-(4-isopropoxyphenyl)-1H-tetrazol-5-yl-methyl)-1,3-propylenediamine hydrochloride], at PRMT1, the inhibition at 10 µM turned out to be 23%.

The record behind these values is publication PMC6695598, “The Development of Tetrazole Derivatives as Protein Arginine Methyltransferase I (PRMT I) Inhibitors” (International Journal of Molecular Sciences, 2019).
